Measurements from ChEMBL document CHEMBL5214987, “Scaffold hopping via ring opening enables identification of acyclic compounds as new complement Factor D inhibitors” (Bioorg Med Chem, 2022).

Key:
in vitro = details: rabbit, rabbit erythrocytes
Description: Hemolytic activity against rabbit erythrocytes incubated for 30 mins in presence of human serum and measured by hemolysis assay

[1] = Tmax in male Sprague-Dawley rat at 10 mg/kg, po; type: ADME, organism-based; details: in vivo
[2] = AUC (0 to 24 hrs) in male Sprague-Dawley rat at 10 mg/kg, po; type: ADME, organism-based; set-up: time < 24 hr, dose 10 mg/kg, route po; details: in vivo
[3] = Cmax in male Sprague-Dawley rat at 10 mg/kg, po; type: ADME, organism-based; set-up: dose 10 mg/kg, route po; details: in vivo
[4] = Half-life in male Sprague-Dawley rat at 10 mg/kg, po; type: ADME, organism-based; details: in vivo
[5] = Tmax in male Sprague-Dawley rat at 2.5 mg/kg, iv; type: ADME, organism-based; details: in vivo
[6] = Cmax in male Sprague-Dawley rat at 2.5 mg/kg, iv; type: ADME, organism-based; set-up: dose 2.5 mg/kg, route iv; details: in vivo
[7] = Half-life in male Sprague-Dawley rat at 2.5 mg/kg, iv; type: ADME, organism-based; details: in vivo
[8] = AUC (0 to 24 hrs) in male Sprague-Dawley rat at 2.5 mg/kg, iv; type: ADME, organism-based; set-up: time < 24 hr, dose 2.5 mg/kg, route iv; details: in vivo
[9] = Oral bioavailability in male Sprague-Dawley rat at 10 mg/kg; type: ADME, organism-based; details: in vivo
[10] = MRTlast at steady state in male Sprague-Dawley rat at 2.5 mg/kg, iv; type: ADME, organism-based; details: in vivo
[11] = AUClast in male Sprague-Dawley rat at 10 mg/kg, po; type: ADME, organism-based; set-up: time 0 - last, dose 10 mg/kg, route po; details: in vivo
[12] = MRTlast in male Sprague-Dawley rat at 10 mg/kg, po; type: ADME, organism-based; details: in vivo
[13] = Clearance in male Sprague-Dawley rat at 2.5 mg/kg, iv; type: ADME, organism-based; details: in vivo
[14] = Initial plasma concentration in male Sprague-Dawley rat at 2.5 mg/kg, iv; type: ADME, organism-based
[15] = Volume of distribution at steady state in male Sprague-Dawley rat at 2.5 mg/kg, iv; type: ADME, organism-based; details: in vivo, read-out: Vdss
[16] = AUClast in male Sprague-Dawley rat at 2.5 mg/kg, iv; type: ADME, organism-based; set-up: time 0 - last, dose 2.5 mg/kg, route iv; details: in vivo

NC(=O)c1nn(CC(=O)N(CC(=O)NCc2cccc(Cl)c2F)C2CC2)c2ccc(NC(=O)NC3CCCCC3)cc12
IC50 at 30 min (in vitro): 0.076 µM

CCN(CC)CCNC(=O)Nc1ccc2c(c1)c(C(N)=O)nn2CC(=O)N(CC(=O)NCc1cccc(Cl)c1F)C1CC1
IC50 at 30 min (in vitro): 0.11 µM

NC(=O)c1nn(CC(=O)N(CC(=O)NCc2cccc(Cl)c2F)C2CC2)c2ccc(NC(=O)N3CCN(Cc4ccc(F)cc4)CC3)cc12
IC50 at 30 min (in vitro): 0.017 µM

NC(=O)c1nn(CC(=O)N2CCC[C@H]2C(=O)NCc2cccc(Cl)c2F)c2ccccc12
Tmax [1]: 30 min | AUC(0-t) at 24 h [2]: 257 ng·h/mL | Cmax [3]: 69.3 ng/mL | half-life [4]: 221 min | Tmax [5]: 4.98 min | Cmax [6]: 6740 ng/mL | half-life [7]: 298 min | AUC(0-t) at 24 h [8]: 3410 ng·h/mL

COC(=O)c1ccc2c(C(N)=O)nn(CC(=O)N(CC(=O)NCc3cccc(Cl)c3F)C3CC3)c2c1
IC50 at 30 min (in vitro): 0.22 µM

NC(=O)c1nn(CC(=O)N(CC(=O)NCc2cccc(Cl)c2F)C2CC2)c2ccc(NC(=O)N3CCCC(F)(F)C3)cc12
IC50 at 30 min (in vitro): 0.017 µM

NC(=O)c1nn(CC(=O)N(CC(=O)NCc2cccc(Cl)c2F)C2CC2)c2ccc(NC(=O)N3CCN(C4CC4)CC3)cc12
IC50 at 30 min (in vitro): 0.064 µM

CC(C)(C)NC(=O)Nc1ccc2c(c1)c(C(N)=O)nn2CC(=O)N(CC(=O)NCc1cccc(Cl)c1F)C1CC1
IC50 at 30 min (in vitro): 0.073 µM

CC(C)(C)OC(=O)Nc1ccc2c(c1)c(C(N)=O)nn2CC(=O)N(CC(=O)NCc1cccc(Cl)c1F)C1CC1
IC50 at 30 min (in vitro): 0.034 µM

CN1CCC(N(C)C(=O)Nc2ccc3c(c2)c(C(N)=O)nn3CC(=O)N(CC(=O)NCc2cccc(Cl)c2F)C2CC2)CC1
Tmax [1]: 30 min | bioavailability [9]: 1.7% | MRT last [10]: 21 min | IC50 at 30 min (in vitro): 0.03 µM | Cmax [3]: 113 ng/mL | half-life [4]: 69 min | AUC(0-t) [11]: 209 ng·h/mL | MRT last [12]: 119 min | clearance [13]: 13.5 mL/min/kg | C0 [14]: 9650 ng/mL | Vd [15]: 0.3 L/kg | half-life [7]: 24.6 min | AUC(0-t) [16]: 3130 ng·h/mL
